In patent US11332463B2, “Spiropiperidine allosteric modulators of nicotinic acetylcholine receptors” (Merck Sharp & Dohme Corp., priority 2018, dated 2022) one finds EC50 data, which are given here for 39 molecules.

The assay has as its target T1, human α7 nicotinic acetylcholine receptor (HEK cell line stably expressing human RIC-3 and human α7) (Homo sapiens, UniProt P36544).
T1 construct: host or cells: HEK cell line (PrecisION hnAChR α7/RIC-3)
The assay is described as follows: Automated patch-clamp electrophysiology functional assay (Assay A), IonFlux HT, whole-cell population patch. Format: cell-based. As to the method: The α7 nAChR positive allosteric modulator (PAM) activity of the present compounds may be tested using assays known in the art. […] The assay was performed using the IonFlux HT in a whole-cell, population patch configuration. See Golden et al. Assay Drug Dev. Technol. […] The compounds were assessed for their ability to modulate the function of the human 7 nAChR stably expressed in a HEK cell line both in the presence, and in the absence of the natural 7 agonist acetylcholine. By performing a series of such measurements at different concentrations, the effective concentration of the 7 nAChR PAMs (EC50) was determined. See Spencer et al. Assay Drug Dev. Technol.
Direct activation of α7 (agonism), and potentiation of acetylcholine-evoked 7 currents was determined as follows:
Automated patch-clamp electrophysiology was performed using the IonFlux HT (Fluxion Biosciences Inc., San Francisco, Calif.) in the whole-cell, population patch configuration. Test compounds were assessed for their ability to modulate the function of the α7 nicotinic acetylcholine receptor both in the presence, and in the absence of the natural α7 agonist acetylcholine. […] Immediately prior to assay, cells were detached by first aspirating growth media, rinsing with Dulbecco's phosphate buffered saline, and then adding 10 mL of Accutase (Innovative Cell Technologies, San Diego, Calif.) to the flask and then incubating at 37° C. for 5 minutes. Detached cells were then recovered by the addition of 40 mL of CHO-serum-free media supplemented with 25 mM HEPES, and rocked gently in a 50 mL conical tube for 20 minutes prior to patch-clamp assay. After recovery, cells were pelleted by centrifugation at 1,000 RPM for 1 minute in a compact bench top centrifuge; recovery media was aspirated and cells were resuspended in external recording solution (150 mM NaCl, 5 mM KCl, 2 mM CaCl2), 1 mM MgCl2, 10 mM HEPES, 12 mM dextrose) to a density of 5.0×10^6 cells/mL. The cell suspension was added to the cell inlet wells on an IonFlux HT population patch plate which had previously been rinsed and primed with deionized H2O. Test compounds were serially diluted in DMSO and then resuspended to the final test concentration in external recording solution, with, or without 40 μM acetylcholine added to the external recording solution; test compounds were then transferred to the IonFlux HT population patch plate. Internal recording solution (110 mM TrisPO4, 28 mM TrisBase, 0.1 mM CaCl2, 2 mM MgCl2, 11 mM EGTA, 4 mM MgATP) was added to the internal recording solution inlet wells on the IonFlux HT patch plate previously loaded with cells and test compounds, and the plate loaded into the IonFlux HT instrument. A protocol was executed on the IonFlux HT to trap the cells, break into the cells, and establish the whole-cell recording configuration; cells were voltage-clamped at a holding potential of −60 mV for the duration of the experiment, all experiments were conducted at room temperature, and the IonFlux HT injection pressure was 8 psi for solution applications. Upon establishing the whole-cell configuration, external recording solution was perfused into the recording chambers for 120 seconds and then 40 μM acetylcholine was applied for 1 second and immediately washed off with external recording solution for 60 seconds. The 40 μM acetylcholine-evoked α7 current served as the current response to which subsequent test compound effects, in the presence, or in the absence of 40 μM acetylcholine would be quantified relative to. Next, test compounds were evaluated at multiple concentrations for their ability to induce, or modulate 7 current responses; three concentrations of test compound were evaluated in ascending dose fashion per recording.
On the technique in general: In patch-clamp work, channel activity is measured electrically.

[1] abbreviates: HEK cells expressing human α7/RIC-3, test compound with or without 40 μM acetylcholine, holding potential −60 mV, room temperature, read-out: α7 nAChR Potency.
[2] abbreviates: automated patch-clamp electrophysiology functional assay (Assay A), read-out: α7 nAChR EC50.

Like-named read-outs stand apart in the source and are kept apart here.

T1 sequence (P36544 23-502): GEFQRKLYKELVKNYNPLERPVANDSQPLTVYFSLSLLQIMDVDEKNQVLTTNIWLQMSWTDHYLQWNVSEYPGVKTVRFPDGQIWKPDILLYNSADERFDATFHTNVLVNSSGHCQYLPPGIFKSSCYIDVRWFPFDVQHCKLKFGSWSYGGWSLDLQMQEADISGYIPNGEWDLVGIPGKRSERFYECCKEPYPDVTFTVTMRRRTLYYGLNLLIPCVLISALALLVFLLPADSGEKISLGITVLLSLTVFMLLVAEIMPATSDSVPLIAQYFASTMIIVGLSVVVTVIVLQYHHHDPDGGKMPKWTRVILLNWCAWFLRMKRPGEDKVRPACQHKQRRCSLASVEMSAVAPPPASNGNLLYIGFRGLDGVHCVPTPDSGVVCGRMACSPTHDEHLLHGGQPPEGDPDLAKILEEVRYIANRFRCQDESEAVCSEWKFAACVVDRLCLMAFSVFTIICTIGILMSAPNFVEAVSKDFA

Turning to `COc1ccc(Cl)cc1-c1noc(C2CC23CCN(S(=O)(=O)CC2CCCCO2)CC3)n1` (mixture of isomers) [Example B3], the EC50 was 500 to 5000 nM under setting [1] and 1300 nM under setting [2].
For `CC(C)C1CC(c2nc([C@@H]3CC34CCN(S(N)(=O)=O)CC4)no2)C1` (mixture of isomers) [Example E3] the same measures were 500 to 5000 nM and 1900 nM.
Taken in the same sequence, the figures for `CC1CCCC(c2nc([C@@H]3CC34CCN(S(N)(=O)=O)CC4)no2)C1` (mixture of isomers) [Example E7] were 500 to 5000 nM and 3400 nM.
Taken in the same sequence, the figures for `CC(c1nc([C@@H]2CC23CCN(S(N)(=O)=O)CC3)no1)c1ccccc1Cl` (mixture of isomers) [Example E8] were 500 to 5000 nM and 3900 nM.
Consider `NS(=O)(=O)N1CCC2(CC1)C[C@H]2c1noc(C2CCCCC23CC3)n1` (mixture of isomers) [Example E11], for which the EC50 under setting [1] was 500 to 5000 nM and the EC50 under setting [2] amounted to 4300 nM.
For `NS(=O)(=O)N1CCC2(CC1)C[C@H]2c1noc(C2CCc3c(F)cccc32)n1` (mixture of isomers) [Example E13] the same measures were 500 to 5000 nM and 1300 nM.
For `NS(=O)(=O)N1CCC2(CC1)C[C@H]2c1noc(C2CC(c3ccccc3)C2)n1` (mixture of isomers) [Example E15] the same measures were 500 to 5000 nM and 1500 nM.
For `NS(=O)(=O)N1CCC2(C(F)C1)C(c1nc(-c3conc3C3CC3)no1)C2(F)F` (mixture of isomers) [Example I11] the same measures were 500 to 5000 nM and 820 nM.
Take `Cc1ccc(C)c(-c2nc(C3C(F)(F)C34CCN(S(N)(=O)=O)C(C)C4)no2)c1` (mixture of isomers) [Example K2]: the EC50 by setting is: under setting [1], 100 to 500 nM; under setting [2], 430 nM.
In the case of `COc1ccc(Cl)cc1-c1noc(C2CC23CCN(S(=O)(=O)Cc2ccccn2)CC3)n1` (racemic) [Example B1], the EC50 runs as follows: under setting [1], 500 to 5000 nM; under setting [2], 2300 nM.
As for `COc1ccc(Cl)cc1-c1noc(C2CC23CCN(S(=O)(=O)c2ccsc2)CC3)n1` (racemic) [Example B2], the EC50 under setting [1] lay in the range of 500 to 5000 nM.
Regarding `COc1ccc(Cl)cc1-c1noc(C2CC23CCN(S(=O)(=O)c2ccn(C)n2)CC3)n1` (racemic) [Example B4], the EC50 under setting [1] lay in the range of 500 to 5000 nM and the EC50 under setting [2] was 3200 nM.
As to `COc1ccc(Cl)cc1-c1noc(C2CC23CCN(S(=O)(=O)CCc2ccccc2)CC3)n1` (racemic) [Example B5], the EC50 by setting is: under setting [1], 500 to 5000 nM; under setting [2], 3000 nM.
With `COc1ccc(Cl)cc1-c1noc(C2CC23CCN(S(=O)(=O)c2cccc4nonc24)CC3)n1` (racemic) [Example B6], under setting [1], the EC50 was in the range of 500 to 5000 nM.
Consider `COc1ccc(Cl)cc1-c1noc(C2CC23CCN(S(=O)(=O)c2ccc4ncsc4c2)CC3)n1` (racemic) [Example B7], for which the EC50 reads like this: under setting [1], 500 to 5000 nM; under setting [2], 3300 nM.
Turning to `COc1ccc(Cl)cc1-c1noc(C2CC23CCN(S(=O)(=O)c2c(O)no[n+]2C)CC3)n1` (racemic) [Example B8], the EC50 under setting [1] lay in the range of 500 to 5000 nM.
Consider `COc1ccc(Cl)cc1-c1noc(C2CC23CCN(C(=O)NC(C)(C)C)CC3)n1` (racemic) [Example B9], for which the EC50 reads like this: under setting [1], 5000 to 50000 nM; under setting [2], 5400 nM.
`COc1ccc(Cl)cc1-c1noc(C2CC23CCN(C(=O)NC2CCCCC2)CC3)n1` (racemic) [Example B10]: the EC50 under setting [1] fell in the range of 500 to 5000 nM.
With `COc1ccc(Cl)cc1-c1noc(C2CC23CCN(S(=O)(=O)NCc2ccccn2)CC3)n1` (racemic) [Example B11], the EC50 is 500 to 5000 nM under setting [1] and 3500 nM under setting [2].
Taken in the same sequence, the figures for `COc1ccc(Cl)cc1-c1noc(C2CC23CCN(C(=O)NCc2ccns2)CC3)n1` (racemic) [Example B12] were 500 to 5000 nM and 3400 nM.
For `COc1ccc(Cl)cc1-c1noc(C2CC23CCN(C(=O)NCc2ccccc2)CC3)n1` (racemic) [Example B13] the same measures were 5000 to 50000 nM and 5100 nM.
For `COc1ccc(Cl)cc1-c1noc(C2CC23CCN(S(C)(=O)=O)CC3)n1` (racemic) [Example B14] the same measures were 500 to 5000 nM and 1100 nM.
As to `CNc1ncccc1-c1noc(C2CC23CCN(S(N)(=O)=O)CC3)n1` (racemic) [Example C1], the EC50 by setting is: under setting [1], 500 to 5000 nM; under setting [2], 3600 nM.
Regarding `NS(=O)(=O)N1CCC2(CC1)CC2c1nc(-c2ccnc(N3CCCC3)c2)no1` (racemic) [Example C2], the EC50 under setting [1] lay within 500 to 5000 nM.
On to `Cc1noc(C)c1-c1noc(C2C(F)(F)C23CCN(S(N)(=O)=O)CC3)n1` (racemic) [Example C3], for which the EC50 was 100 to 500 nM under setting [1] and 400 nM under setting [2].
As for `COc1ccc(Cl)cc1-c1noc(C2CC23CCN(S(N)(=O)=O)CC3)n1` (racemic) [Example C13], under setting [1], the EC50 lay within 500 to 5000 nM.
As for `NS(=O)(=O)N1CCC2(CC1)C(c1nc(-c3ccc(F)cc3C(F)(F)F)no1)C2(Cl)Cl` (racemic) [Example C17], the EC50 under setting [1] lay in the range of 500 to 5000 nM and the EC50 under setting [2] is 2700 nM.
Taken in the same sequence, the figures for `Cc1ccc(C)c(-c2noc(C3(C)C(F)(F)C34CCN(S(N)(=O)=O)CC4)n2)c1` (racemic) [Example C18] were 500 to 5000 nM and 1600 nM.
Taken in the same sequence, the figures for `COc1ccc(Cl)cc1-c1nc(C2CC23CCN(S(C)(=O)=O)CC3)no1` (racemic) [Example J1] were 500 to 5000 nM and 760 nM.
For `NS(=O)(=O)N1CCC2(CC1)C(c1nsc(N3CCCCC3)n1)C2(F)F` (racemic) [Example J2] the same measures were 500 to 5000 nM and 1000 nM.
Consider `COc1ccc(Cl)cc1-c1nc(C2CC23CCN(S(C)(=O)=O)CC3)no1` (single isomer, unassigned) [Example 26, 1-[5-(5-Chloro-2-methoxyphenyl)-1,2,4-oxadiazol-3-yl]-6-(methylsulfonyl)-6-azaspiro[2.5]octane], for which the EC50 reads like this: under setting [1], 100 to 500 nM; under setting [2], 480 nM.
Consider `NS(=O)(=O)N1CCC2(CC2c2nc(-c3cccc(OC(F)F)c3)no2)C(F)C1` (single isomer, unassigned) [Example I1], for which the EC50 under setting [1] was in the range of 500 to 5000 nM and the EC50 under setting [2] came out at 750 nM.
Taken in the same sequence, the figures for `NS(=O)(=O)N1CCC2(CC2c2nc(-c3cccc(OC(F)F)c3)no2)C(F)C1` (single isomer, unassigned) [Example I2] were 500 to 5000 nM and 1000 nM.
For `NS(=O)(=O)N1CCC2(CC2c2nc(-c3ccccc3)no2)C(F)(F)C1` (single isomer, unassigned) [Example I3] the same measures were 500 to 5000 nM and 2300 nM.
On to `Cc1ccc(C)c(-c2noc(C3CC34CCN(S(N)(=O)=O)CC4(F)F)n2)c1` (single isomer, unassigned) [Example I4], for which the EC50 by setting is: under setting [1], 500 to 5000 nM; under setting [2], 1500 nM.
Taken in the same sequence, the figures for `CC1CN(S(N)(=O)=O)CCC12CC2c1nc(-c2ccnc(OCC(F)(F)F)c2)no1` (single isomer, unassigned) [Example I5] were 500 to 5000 nM and 1200 nM.
For `NS(=O)(=O)N1CCC2(CC2c2nc(-c3conc3C3CC3)no2)C(F)C1` (single isomer, unassigned) [Example I6] the same measures were 500 to 5000 nM and 840 nM.
Taken in the same sequence, the figures for `NS(=O)(=O)N1CCC2(CC2c2nc(-c3conc3C3CC3)no2)C(F)C1` (single isomer, unassigned) [Example I7] were 500 to 5000 nM and 1500 nM.
As to `NS(=O)(=O)N1CCC2(CC2c2nc(-c3conc3C3CC3)no2)C(F)C1` (single isomer, unassigned) [Example I8], the EC50 under setting [1] lay within 5000 to 50000 nM.
